ChEMBL document CHEMBL1124726, “Novel [(diazomethyl)carbonyl]-1,2,3,4-tetrahydronaphthalene derivatives as potential photoaffinity ligands for the 5-HT1A receptor” (J Med Chem, 1990)

How the values were obtained:
[1] = target: T1, 5-hydroxytryptamine receptor 1A (Rattus norvegicus, UniProt P19327); test: Binding affinity to 5-hydroxytryptamine 1A receptor in rat hippocampus using [3H]-8-OH- DPAT as radioligand; type: tissue-based
T1 sequence (P19327 whole entry): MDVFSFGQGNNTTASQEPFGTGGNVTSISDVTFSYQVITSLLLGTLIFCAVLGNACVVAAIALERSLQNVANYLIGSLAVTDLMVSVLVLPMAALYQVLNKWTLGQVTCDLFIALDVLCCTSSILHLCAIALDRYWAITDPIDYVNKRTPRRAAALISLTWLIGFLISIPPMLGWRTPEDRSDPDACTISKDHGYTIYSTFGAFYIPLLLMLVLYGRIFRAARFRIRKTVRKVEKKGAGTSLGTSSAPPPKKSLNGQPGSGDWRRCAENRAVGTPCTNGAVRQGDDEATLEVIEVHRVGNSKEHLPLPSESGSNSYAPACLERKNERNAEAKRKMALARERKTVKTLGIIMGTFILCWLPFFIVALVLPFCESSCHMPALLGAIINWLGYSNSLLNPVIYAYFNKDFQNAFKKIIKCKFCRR

[2] = target: T1, 5-hydroxytryptamine receptor 1A; test: Binding affinity to 5-hydroxytryptamine 1A receptor in rat cortex using [3H]-8-OH- DPAT as radioligand

SMILES	IC50 [1] [nM]	IC50 [2] [nM]
CCCN(CCC)C1CCc2cccc(OCC(=O)C=[N+]=[N-])c2C1 (configuration not stated)	78.1	72
CCCN(CCC)C1CCc2cccc(OC(=O)[CH-][N+]#N)c2C1 (configuration not stated)	155	107
CCCN(CCC)C1CCc2cccc(C(=O)OC)c2C1 (configuration not stated)		5.4
CCCN(CCC)C1CCc2cccc(C(=O)[CH-][N+]#N)c2C1 (configuration not stated)	24	20
